Measurements reported in EP0414533A1, “Use of iodopropargyl esters of alpha-amino acid derivatives as antimicrobial agents” (ROHM AND HAAS COMPANY, priority 1989, dated 1991).
Converted amounts (≈) assume the structure as drawn. Read-outs that look alike come from different tables or passages of the source. Each block holds one compound with its values, some of them ahead of it.

Columns and labels:
[1] = tested on: Aureobasidium pullulans (APUL); test: Minimum inhibitory concentration (MIC), broth two-fold serial dilution test; assay type: cell-based; conditions: Aureobasidium pullulans, IIIB, trypticase soy broth (complex media); Table IIIb; read-out: MIC (F) APUL
[2] = tested on: Pseudomonas fluorescens (PSFL); test: as above; conditions: Pseudomonas fluorescens, IIIB, read-out: MIC (G-) PSFL, trypticase soy broth (complex media); Table IIIb
[3] = tested on: Staphylococcus aureus (SAUR); test: as above; conditions: Staphylococcus aureus, IIIB, read-out: MIC (G+) SAUR, trypticase soy broth (complex media); Table IIIb
[4] = tested on: Pseudomonas aerugenosa (PSAE); test: as above; conditions: Pseudomonas, IIIB, read-out: MIC (G-) PSAE, trypticase soy broth (complex media); Table IIIb
Escherichia coli (ECOL) = test: as above; conditions: Escherichia coli, IIIB, read-out: MIC (G-) ECOL, trypticase soy broth (complex media); Table IIIb
THREE FUNGI = test: MIC test against three fungi in Mycophile Broth, pH 5.0, read after 8 days (Table VII); assay type: cell-based; conditions: 192 h, serial dilutions from 50 ppm, read after 8 days of incubation
8 FUNGI = test: Microbicides secondary test against 8 fungi on Mycophile Agar at pH 5.0 (Table VI); assay type: cell-based; design: key: 1= no growth; 0= growth of the indicated fungi at dose indicated in ppm; conditions: for ANIG growth: Aspergillus niger; for APUL growth: Aureobasidium pullulans; for CGLO growth: Chaetomium globosum; for CRES growth: Cladosporium resinae; for GTRA growth: Gloeophyllum trabeum; for PFUN growth: Penicillium funiculosum; for RRUB growth: Rhodotorula rubra; for SSER growth: Sacharomyces cerevisiae
From the text: The results of the minimum inhibitory concentration (MIC) tests of compounds of this invention are shown in Tables IIIa IIIb, IIIc, V, VI, VII, and VIII against the microorganisms shown in Table IX.

[5] = tested on: MIXED COOLING TOWER ALGAE; test: MIC test against mixed cooling tower algae; assay type: cell-based, green algae and blue-green bacteria; conditions: Table VIII
Protocol: The algae culture contains green algae and blue-green bacteria, and is obtained from a cooling tower in Spring House, Pennsylvania. The algae culture is grown in Allen's medium on a rotary shaker under flourescent room lighting. This culture is further diluted with Allen's medium and then added to the test vessel.

Aspergillus niger (ANIG) = test: Minimum inhibitory concentration (MIC), broth two-fold serial dilution test; assay type: cell-based; conditions: Aspergillus niger, IIIB, trypticase soy broth (complex media); Table IIIb; read-out: MIC (F) ANIG
[6] = Aspergillus niger, read-out: MIC ANIG
[7] = Aureobasidium pullulans, read-out: MIC APUL
[8] = Gloeophyllum trabeum, read-out: MIC GTRA

- MIC [1]: 8 µg/mL (≈ 21.9 µM)
- MIC [2]: 63 µg/mL (≈ 173 µM)
- MIC [3]: 250 µg/mL (≈ 685 µM)
- MIC [4]: 125 µg/mL (≈ 342 µM)
- MIC (Escherichia coli (ECOL)): > 250 µg/mL
- MIC (THREE FUNGI; [6]): 1.6 µg/mL (≈ 4.38 µM)
- MIC (THREE FUNGI; [7]): 12.5 µg/mL (≈ 34.2 µM)
- MIC (THREE FUNGI; [8]): 3.2 µg/mL (≈ 8.76 µM)
- MIC (Aspergillus niger (ANIG)): < 0.12 µg/mL
SMILES: CCCCCCCC(=O)NCC(=O)OCC#CI [Compound 34, N-octanoylglycine iodopropargyl ester]
- ANIG growth (8 FUNGI; 0.2 PPM): 0
- ANIG growth (8 FUNGI; 1.0 PPM): 1
- ANIG growth (8 FUNGI; 2.5 PPM): 1
- ANIG growth (8 FUNGI; 25 PPM): 1
- APUL growth (8 FUNGI; 0.2 PPM): 0
- APUL growth (8 FUNGI; 1.0 PPM): 0
- APUL growth (8 FUNGI; 2.5 PPM): 0
- APUL growth (8 FUNGI; 25 PPM): 1
- CGLO growth (8 FUNGI; 0.2 PPM): 0
- CGLO growth (8 FUNGI; 1.0 PPM): 1
- CGLO growth (8 FUNGI; 2.5 PPM): 0
- CGLO growth (8 FUNGI; 25 PPM): 1
- CRES growth (8 FUNGI; 0.2 PPM): 0
- CRES growth (8 FUNGI; 1.0 PPM): 0
- CRES growth (8 FUNGI; 2.5 PPM): 0
- CRES growth (8 FUNGI; 25 PPM): 1
- GTRA growth (8 FUNGI; 0.2 PPM): 0
- GTRA growth (8 FUNGI; 1.0 PPM): 1
- GTRA growth (8 FUNGI; 2.5 PPM): 1
- GTRA growth (8 FUNGI; 25 PPM): 1
- PFUN growth (8 FUNGI; 0.2 PPM): 0
- PFUN growth (8 FUNGI; 1.0 PPM): 0
- PFUN growth (8 FUNGI; 2.5 PPM): 1
- PFUN growth (8 FUNGI; 25 PPM): 1
- RRUB growth (8 FUNGI; 0.2 PPM): 0
- RRUB growth (8 FUNGI; 1.0 PPM): 0
- RRUB growth (8 FUNGI; 2.5 PPM): 0
- RRUB growth (8 FUNGI; 25 PPM): 1
- SSER growth (8 FUNGI; 0.2 PPM): 0
- SSER growth (8 FUNGI; 1.0 PPM): 0
- SSER growth (8 FUNGI; 2.5 PPM): 0
- SSER growth (8 FUNGI; 25 PPM): 1
- MIC [5]: 12.5 µg/mL (≈ 34.2 µM)

- MIC [1]: 4 µg/mL (≈ 10.7 µM)
- MIC [2]: 32 µg/mL (≈ 85.8 µM)
- MIC [3]: 32 µg/mL (≈ 85.8 µM)
- MIC [4]: 63 µg/mL (≈ 169 µM)
- MIC (Escherichia coli (ECOL)): 250 µg/mL (≈ 670 µM)
- MIC (THREE FUNGI; [6]): 1.6 µg/mL (≈ 4.29 µM)
- MIC (THREE FUNGI; [7]): 6.2 µg/mL (≈ 16.6 µM)
- MIC (THREE FUNGI; [8]): 0.8 µg/mL (≈ 2.14 µM)
- MIC (Aspergillus niger (ANIG)): 2 µg/mL (≈ 5.36 µM)
SMILES: O=C(CNC(=O)OCc1ccccc1)OCC#CI [Compound 31, N-benzyloxycarbonylglycine iodopropargyl ester]
- ANIG growth (8 FUNGI; 0.2 PPM): 0
- ANIG growth (8 FUNGI; 1.0 PPM): 0
- ANIG growth (8 FUNGI; 2.5 PPM): 1
- ANIG growth (8 FUNGI; 25 PPM): 1
- APUL growth (8 FUNGI; 0.2 PPM): 0
- APUL growth (8 FUNGI; 1.0 PPM): 0
- APUL growth (8 FUNGI; 2.5 PPM): 0
- APUL growth (8 FUNGI; 25 PPM): 1
- CGLO growth (8 FUNGI; 0.2 PPM): 0
- CGLO growth (8 FUNGI; 1.0 PPM): 0
- CGLO growth (8 FUNGI; 2.5 PPM): 1
- CGLO growth (8 FUNGI; 25 PPM): 1
- CRES growth (8 FUNGI; 0.2 PPM): 0
- CRES growth (8 FUNGI; 1.0 PPM): 0
- CRES growth (8 FUNGI; 2.5 PPM): 0
- CRES growth (8 FUNGI; 25 PPM): 1
- GTRA growth (8 FUNGI; 0.2 PPM): 0
- GTRA growth (8 FUNGI; 1.0 PPM): 0
- GTRA growth (8 FUNGI; 2.5 PPM): 1
- GTRA growth (8 FUNGI; 25 PPM): 1
- PFUN growth (8 FUNGI; 0.2 PPM): 0
- PFUN growth (8 FUNGI; 1.0 PPM): 0
- PFUN growth (8 FUNGI; 2.5 PPM): 1
- PFUN growth (8 FUNGI; 25 PPM): 1
- RRUB growth (8 FUNGI; 0.2 PPM): 0
- RRUB growth (8 FUNGI; 1.0 PPM): 0
- RRUB growth (8 FUNGI; 2.5 PPM): 0
- RRUB growth (8 FUNGI; 25 PPM): 1
- SSER growth (8 FUNGI; 0.2 PPM): 0
- SSER growth (8 FUNGI; 1.0 PPM): 0
- SSER growth (8 FUNGI; 2.5 PPM): 0
- SSER growth (8 FUNGI; 25 PPM): 1
- MIC [5]: 6.2 µg/mL (≈ 16.6 µM)

- MIC [1]: 8 µg/mL (≈ 30 µM)
- MIC [2]: 32 µg/mL (≈ 120 µM)
- MIC [3]: 63 µg/mL (≈ 236 µM)
- MIC [4]: 63 µg/mL (≈ 236 µM)
- MIC (Escherichia coli (ECOL)): 63 µg/mL (≈ 236 µM)
- MIC (THREE FUNGI; [6]): 12.5 µg/mL (≈ 46.8 µM)
- MIC (THREE FUNGI; [7]): 25 µg/mL (≈ 93.6 µM)
- MIC (THREE FUNGI; [8]): 3.2 µg/mL (≈ 12 µM)
- MIC (Aspergillus niger (ANIG)): 2 µg/mL (≈ 7.49 µM)
SMILES: O=CNCC(=O)OCC#CI [Compound 32, N-formylglycine iodopropargyl ester]
- ANIG growth (8 FUNGI; 0.2 PPM): 0
- ANIG growth (8 FUNGI; 1.0 PPM): 0
- ANIG growth (8 FUNGI; 2.5 PPM): 0
- ANIG growth (8 FUNGI; 25 PPM): 1
- APUL growth (8 FUNGI; 0.2 PPM): 0
- APUL growth (8 FUNGI; 1.0 PPM): 0
- APUL growth (8 FUNGI; 2.5 PPM): 0
- APUL growth (8 FUNGI; 25 PPM): 1
- CGLO growth (8 FUNGI; 0.2 PPM): 0
- CGLO growth (8 FUNGI; 1.0 PPM): 0
- CGLO growth (8 FUNGI; 2.5 PPM): 0
- CGLO growth (8 FUNGI; 25 PPM): 1
- CRES growth (8 FUNGI; 0.2 PPM): 0
- CRES growth (8 FUNGI; 1.0 PPM): 0
- CRES growth (8 FUNGI; 2.5 PPM): 0
- CRES growth (8 FUNGI; 25 PPM): 1
- GTRA growth (8 FUNGI; 0.2 PPM): 0
- GTRA growth (8 FUNGI; 1.0 PPM): 0
- GTRA growth (8 FUNGI; 2.5 PPM): 0
- GTRA growth (8 FUNGI; 25 PPM): 1
- PFUN growth (8 FUNGI; 0.2 PPM): 0
- PFUN growth (8 FUNGI; 1.0 PPM): 0
- PFUN growth (8 FUNGI; 2.5 PPM): 0
- PFUN growth (8 FUNGI; 25 PPM): 1
- RRUB growth (8 FUNGI; 0.2 PPM): 0
- RRUB growth (8 FUNGI; 1.0 PPM): 0
- RRUB growth (8 FUNGI; 2.5 PPM): 0
- RRUB growth (8 FUNGI; 25 PPM): 1
- SSER growth (8 FUNGI; 0.2 PPM): 0
- SSER growth (8 FUNGI; 1.0 PPM): 0
- SSER growth (8 FUNGI; 2.5 PPM): 0
- SSER growth (8 FUNGI; 25 PPM): 1
- MIC [5]: 6.2 µg/mL (≈ 23.2 µM)
